# Test results from patent publication US9993494B2, “Compositions and methods for treating fibrotic disease” (eFFECTOR Therapeutics, Inc., priority 2014, dated 2018).
# Test system: normal human lung fibroblasts
# Assay: Ribosomal profiling: translational efficiency in TGFβ-treated fibroblasts
# Assay type: cell-based
# Summary of the method: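 Genome-wide RPF and total RNA libraries (ARTseq, RNA-Seq) were made from lysates of cycloheximide-treated, PBS-washed cells. After trimming and human-genome mapping, per-gene coding-region counts were compared between RPF and RNA for translational efficiency. Genes scoring low in either fraction were dropped.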
substance,measurement,setting,value
TGFβ,Log2 TE RPS6KA5,"ENSG00000100784, 5 replicates",−1.431
same,Log2 TE CEP192,"ENSG00000101639, 5 replicates",−1.192
same,change in translational profile of CEP192 caused by TGFβ,"ENSG00000101639, Control vs. TGFβ",C (C = <−1.0 to −1.5)
same,change in translational profile of AMMECR1 caused by TGFβ,"ENSG00000101935, Control vs. TGFβ",D (D = <1.0 to 1.5)
same,change in translational profile of PLP2 caused by TGFβ,"ENSG00000102007, Control vs. TGFβ",D (D = <1.0 to 1.5)
same,Log2 TE SGK3,"ENSG00000104205, 5 replicates",−1.011
same,Log2 TE TRPA1,"ENSG00000104321, 5 replicates",−1.256
same,Log2 TE EIF3E,"ENSG00000104408, 5 replicates",1.469
same,change in translational profile of EIF3E caused by TGFβ,"ENSG00000104408, Control vs. TGFβ",E (E = <1.5 to 2.5)
same,Log2 TE EEF1D,"ENSG00000104529, 5 replicates",1.619
same,change in translational profile of EEF1D caused by TGFβ,"ENSG00000104529, Control vs. TGFβ",E (E = <1.5 to 2.5)
same,change in translational profile of C19orf53 caused by TGFβ,"ENSG00000104979, Control vs. TGFβ",D (D = <1.0 to 1.5)
same,Log2 TE RPS16,"ENSG00000105193, 5 replicates",1.989
same,Log2 TE RPS19,"ENSG00000105372, 5 replicates",1.55
same,Log2 TE GLTSCR2,"ENSG00000105373, 5 replicates",2.067
same,change in translational profile of GLTSCR2 caused by TGFβ,"ENSG00000105373, Control vs. TGFβ",E (E = <1.5 to 2.5)
same,change in translational profile of RAB3D caused by TGFβ,"ENSG00000105514, Control vs. TGFβ",B (B = <−1.5 to −2.5)
same,Log2 TE RPL18A,"ENSG00000105640, 5 replicates",1.669
same,change in translational profile of RPL18A caused by TGFβ,"ENSG00000105640, Control vs. TGFβ",E (E = <1.5 to 2.5)
same,Log2 TE COMP,"ENSG00000105664, 5 replicates",1.317
same,change in translational profile of COMP caused by TGFβ,"ENSG00000105664, Control vs. TGFβ",E (E = <1.5 to 2.5)
same,Log2 TE GLCCI1,"ENSG00000106415, 5 replicates",−1.842
same,change in translational profile of GLCCI1 caused by TGFβ,"ENSG00000106415, Control vs. TGFβ",B (B = <−1.5 to −2.5)
same,Log2 TE CORO2A,"ENSG00000106789, 5 replicates",1.212
same,change in translational profile of CORO2A caused by TGFβ,"ENSG00000106789, Control vs. TGFβ",E (E = <1.5 to 2.5)
same,change in translational profile of GDF10 caused by TGFβ,"ENSG00000107623, Control vs. TGFβ",C (C = <−1.0 to −1.5)
same,Log2 TE RPL28,"ENSG00000108107, 5 replicates",1.869
same,change in translational profile of RPL28 caused by TGFβ,"ENSG00000108107, Control vs. TGFβ",E (E = <1.5 to 2.5)
same,Log2 TE RPL19,"ENSG00000108298, 5 replicates",1.075
same,change in translational profile of RPL19 caused by TGFβ,"ENSG00000108298, Control vs. TGFβ",D (D = <1.0 to 1.5)
same,Log2 TE RASD1,"ENSG00000108551, 5 replicates",1.836
same,change in translational profile of RASD1 caused by TGFβ,"ENSG00000108551, Control vs. TGFβ",E (E = <1.5 to 2.5)
same,Log2 TE SLC16A6,"ENSG00000108932, 5 replicates",−1.3497
same,change in translational profile of NAT9 caused by TGFβ,"ENSG00000109065, Control vs. TGFβ",D (D = <1.0 to 1.5)
same,Log2 TE INPP4B,"ENSG00000109452, 5 replicates",−1.569
same,Log2 TE RPL34,"ENSG00000109475, 5 replicates",1.608
same,change in translational profile of RPL34 caused by TGFβ,"ENSG00000109475, Control vs. TGFβ",E (E = <1.5 to 2.5)
same,Log2 TE NEIL3,"ENSG00000109674, 5 replicates",−2.63
same,Log2 TE CRYAB,"ENSG00000109846, 5 replicates",1.107
same,change in translational profile of CRYAB caused by TGFβ,"ENSG00000109846, Control vs. TGFβ",D (D = <1.0 to 1.5)
same,Log2 TE RPS13,"ENSG00000110700, 5 replicates",1.539
same,Log2 TE KRT18,"ENSG00000111057, 5 replicates",1.811
same,Log2 TE GAPDH,"ENSG00000111640, 5 replicates",1.263
same,change in translational profile of GAPDH caused by TGFβ,"ENSG00000111640, Control vs. TGFβ",E (E = <1.5 to 2.5)
same,Log2 TE C12orf57,"ENSG00000111678, 5 replicates",1.173
same,change in translational profile of C12orf57 caused by TGFβ,"ENSG00000111678, Control vs. TGFβ",D (D = <1.0 to 1.5)
same,Log2 TE BVES,"ENSG00000112276, 5 replicates",1.173
same,Log2 TE RPS12,"ENSG00000112306, 5 replicates",1.642
same,change in translational profile of MDFI caused by TGFβ,"ENSG00000112559, Control vs. TGFβ",A (A = <−2.5)
same,Log2 TE HBEGF,"ENSG00000113070, 5 replicates",1.088
same,change in translational profile of HBEGF caused by TGFβ,"ENSG00000113070, Control vs. TGFβ",D (D = <1.0 to 1.5)
same,Log2 TE THG1L,"ENSG00000113272, 5 replicates",1.155
same,Log2 TE RPL24,"ENSG00000114391, 5 replicates",1.304
same,change in translational profile of RPL24 caused by TGFβ,"ENSG00000114391, Control vs. TGFβ",E (E = <1.5 to 2.5)
same,Log2 TE EEF1B2,"ENSG00000114942, 5 replicates",1.434
same,change in translational profile of EEF1B2 caused by TGFβ,"ENSG00000114942, Control vs. TGFβ",E (E = <1.5 to 2.5)
same,Log2 TE IFIH1,"ENSG00000115267, 5 replicates",−1.416
same,change in translational profile of IFIH1 caused by TGFβ,"ENSG00000115267, Control vs. TGFβ",B (B = <−1.5 to −2.5)
same,Log2 TE RPS15,"ENSG00000115268, 5 replicates",1.3
